PMC5589098 (PLoS ONE, 2017)
Like-named read-outs stand apart in the source and are kept apart here. Where a SMILES comes first, the peptide text is derived from it. Bridges are numbered along the chain shown (N, C = ends).

Experiments:
[1] = target: human (h) Cav2.2 channels in SH-SY5Y cells (Homo sapiens, UniProt Q00975); experiment: cell-based
hCav1.3 = hCav1.3 (Homo sapiens, UniProt Q01668); experiment: cell-based
hCav3.1 = hCav3.1 (Homo sapiens, UniProt O43497); experiment: cell-based
[2] = target: rat (r) Cav2.2 (Cav α1b + Cav β1b + Cav α2δ) (Rattus norvegicus, UniProt Q02294); experiment: cell-based
hNav1.1 = hNav1.1 (Homo sapiens, UniProt P35498); experiment: cell-based
hNav1.2 = hNav1.2 (Homo sapiens, UniProt Q99250); experiment: cell-based
hNav1.3 = hNav1.3 (Homo sapiens, UniProt Q9NY46); experiment: cell-based
hNav1.4 = hNav1.4 (Homo sapiens, UniProt P35499); experiment: cell-based; format: cell-based
hNav1.5 = hNav1.5 (Homo sapiens, UniProt Q14524); experiment: cell-based; format: cell-based
hNav1.6 = hNav1.6 (Homo sapiens, UniProt Q9UQD0); experiment: cell-based; format: cell-based
hNav1.7 [3] = target: T1, hNav1.7 (Homo sapiens, UniProt Q15858); experiment: cell-based
hNav1.8 = hNav1.8 (Homo sapiens, UniProt Q9Y5Y9); experiment: cell-based
hNav1.7 [4] = target: T1, hNav1.7; experiment: cell-based; remark: listed apart in the source
C57BL/6J mice = details: mouse, in vivo
[5] = tested on: adult sheep blowflies (Lucilia cuprina); details: in vivo
[6] = tested on: Nav1.7-mediated pain in C57BL/6J mice; details: mouse, in vivo

Chain of hCav3.1 (O43497 whole entry): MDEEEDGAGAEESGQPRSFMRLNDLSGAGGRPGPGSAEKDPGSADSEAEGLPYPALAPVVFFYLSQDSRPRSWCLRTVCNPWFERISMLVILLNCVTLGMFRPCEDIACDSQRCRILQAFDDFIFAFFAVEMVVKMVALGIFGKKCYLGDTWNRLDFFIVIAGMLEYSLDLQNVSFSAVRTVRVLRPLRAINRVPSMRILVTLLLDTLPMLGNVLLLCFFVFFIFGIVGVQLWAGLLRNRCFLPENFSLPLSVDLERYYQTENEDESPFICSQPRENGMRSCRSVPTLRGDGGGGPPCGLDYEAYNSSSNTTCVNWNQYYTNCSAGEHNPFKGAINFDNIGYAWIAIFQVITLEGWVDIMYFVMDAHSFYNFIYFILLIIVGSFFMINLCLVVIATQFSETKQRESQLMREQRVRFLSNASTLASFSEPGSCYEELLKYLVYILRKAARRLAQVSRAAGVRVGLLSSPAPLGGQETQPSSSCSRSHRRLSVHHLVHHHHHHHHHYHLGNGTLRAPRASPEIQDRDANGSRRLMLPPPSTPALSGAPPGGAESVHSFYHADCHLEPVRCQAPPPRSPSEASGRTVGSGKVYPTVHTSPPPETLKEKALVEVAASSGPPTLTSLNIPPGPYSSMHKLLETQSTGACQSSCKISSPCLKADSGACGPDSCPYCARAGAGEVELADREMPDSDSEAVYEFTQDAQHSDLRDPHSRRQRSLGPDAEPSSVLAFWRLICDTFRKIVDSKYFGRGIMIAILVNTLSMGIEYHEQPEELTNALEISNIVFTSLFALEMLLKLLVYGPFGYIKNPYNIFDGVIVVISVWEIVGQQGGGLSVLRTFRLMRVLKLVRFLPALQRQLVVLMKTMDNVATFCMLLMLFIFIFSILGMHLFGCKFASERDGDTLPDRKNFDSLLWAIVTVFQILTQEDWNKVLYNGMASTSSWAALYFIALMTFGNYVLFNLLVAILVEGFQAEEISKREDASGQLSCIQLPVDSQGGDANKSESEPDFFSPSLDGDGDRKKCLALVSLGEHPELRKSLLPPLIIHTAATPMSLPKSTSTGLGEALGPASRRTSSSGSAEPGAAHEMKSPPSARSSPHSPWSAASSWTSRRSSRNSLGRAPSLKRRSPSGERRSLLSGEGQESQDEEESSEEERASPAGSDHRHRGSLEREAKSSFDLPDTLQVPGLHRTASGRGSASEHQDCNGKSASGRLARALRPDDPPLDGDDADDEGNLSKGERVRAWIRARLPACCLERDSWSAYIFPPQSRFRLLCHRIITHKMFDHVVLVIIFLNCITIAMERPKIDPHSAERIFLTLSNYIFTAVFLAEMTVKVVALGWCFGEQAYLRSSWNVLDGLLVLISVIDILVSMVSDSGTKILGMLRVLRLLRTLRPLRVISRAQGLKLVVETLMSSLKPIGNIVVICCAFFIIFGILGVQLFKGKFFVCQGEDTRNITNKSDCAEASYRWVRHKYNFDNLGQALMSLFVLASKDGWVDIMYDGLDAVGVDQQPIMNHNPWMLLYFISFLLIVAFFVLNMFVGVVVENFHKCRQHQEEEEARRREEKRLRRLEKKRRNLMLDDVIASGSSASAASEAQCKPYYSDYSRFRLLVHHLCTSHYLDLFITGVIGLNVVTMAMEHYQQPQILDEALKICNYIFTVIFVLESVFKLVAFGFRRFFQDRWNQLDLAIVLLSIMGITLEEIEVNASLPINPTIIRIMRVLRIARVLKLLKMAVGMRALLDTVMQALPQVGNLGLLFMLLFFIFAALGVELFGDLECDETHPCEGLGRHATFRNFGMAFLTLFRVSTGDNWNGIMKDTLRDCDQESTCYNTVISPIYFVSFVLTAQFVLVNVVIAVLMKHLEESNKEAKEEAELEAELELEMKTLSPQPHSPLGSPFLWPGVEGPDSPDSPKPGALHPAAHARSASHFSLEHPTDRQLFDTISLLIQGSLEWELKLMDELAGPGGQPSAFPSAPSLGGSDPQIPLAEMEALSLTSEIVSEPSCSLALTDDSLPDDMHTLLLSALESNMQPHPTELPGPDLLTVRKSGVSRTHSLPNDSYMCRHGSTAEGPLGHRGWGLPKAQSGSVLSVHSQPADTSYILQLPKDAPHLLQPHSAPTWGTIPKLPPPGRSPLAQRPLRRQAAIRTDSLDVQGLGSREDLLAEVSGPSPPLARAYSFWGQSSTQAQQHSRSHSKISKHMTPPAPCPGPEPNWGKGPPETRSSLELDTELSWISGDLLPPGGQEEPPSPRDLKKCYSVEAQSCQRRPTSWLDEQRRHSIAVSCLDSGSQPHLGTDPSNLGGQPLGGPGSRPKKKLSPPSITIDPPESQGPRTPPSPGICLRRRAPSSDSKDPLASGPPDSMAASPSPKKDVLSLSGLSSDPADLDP
Chain of hNav1.8 (Q9Y5Y9 whole entry): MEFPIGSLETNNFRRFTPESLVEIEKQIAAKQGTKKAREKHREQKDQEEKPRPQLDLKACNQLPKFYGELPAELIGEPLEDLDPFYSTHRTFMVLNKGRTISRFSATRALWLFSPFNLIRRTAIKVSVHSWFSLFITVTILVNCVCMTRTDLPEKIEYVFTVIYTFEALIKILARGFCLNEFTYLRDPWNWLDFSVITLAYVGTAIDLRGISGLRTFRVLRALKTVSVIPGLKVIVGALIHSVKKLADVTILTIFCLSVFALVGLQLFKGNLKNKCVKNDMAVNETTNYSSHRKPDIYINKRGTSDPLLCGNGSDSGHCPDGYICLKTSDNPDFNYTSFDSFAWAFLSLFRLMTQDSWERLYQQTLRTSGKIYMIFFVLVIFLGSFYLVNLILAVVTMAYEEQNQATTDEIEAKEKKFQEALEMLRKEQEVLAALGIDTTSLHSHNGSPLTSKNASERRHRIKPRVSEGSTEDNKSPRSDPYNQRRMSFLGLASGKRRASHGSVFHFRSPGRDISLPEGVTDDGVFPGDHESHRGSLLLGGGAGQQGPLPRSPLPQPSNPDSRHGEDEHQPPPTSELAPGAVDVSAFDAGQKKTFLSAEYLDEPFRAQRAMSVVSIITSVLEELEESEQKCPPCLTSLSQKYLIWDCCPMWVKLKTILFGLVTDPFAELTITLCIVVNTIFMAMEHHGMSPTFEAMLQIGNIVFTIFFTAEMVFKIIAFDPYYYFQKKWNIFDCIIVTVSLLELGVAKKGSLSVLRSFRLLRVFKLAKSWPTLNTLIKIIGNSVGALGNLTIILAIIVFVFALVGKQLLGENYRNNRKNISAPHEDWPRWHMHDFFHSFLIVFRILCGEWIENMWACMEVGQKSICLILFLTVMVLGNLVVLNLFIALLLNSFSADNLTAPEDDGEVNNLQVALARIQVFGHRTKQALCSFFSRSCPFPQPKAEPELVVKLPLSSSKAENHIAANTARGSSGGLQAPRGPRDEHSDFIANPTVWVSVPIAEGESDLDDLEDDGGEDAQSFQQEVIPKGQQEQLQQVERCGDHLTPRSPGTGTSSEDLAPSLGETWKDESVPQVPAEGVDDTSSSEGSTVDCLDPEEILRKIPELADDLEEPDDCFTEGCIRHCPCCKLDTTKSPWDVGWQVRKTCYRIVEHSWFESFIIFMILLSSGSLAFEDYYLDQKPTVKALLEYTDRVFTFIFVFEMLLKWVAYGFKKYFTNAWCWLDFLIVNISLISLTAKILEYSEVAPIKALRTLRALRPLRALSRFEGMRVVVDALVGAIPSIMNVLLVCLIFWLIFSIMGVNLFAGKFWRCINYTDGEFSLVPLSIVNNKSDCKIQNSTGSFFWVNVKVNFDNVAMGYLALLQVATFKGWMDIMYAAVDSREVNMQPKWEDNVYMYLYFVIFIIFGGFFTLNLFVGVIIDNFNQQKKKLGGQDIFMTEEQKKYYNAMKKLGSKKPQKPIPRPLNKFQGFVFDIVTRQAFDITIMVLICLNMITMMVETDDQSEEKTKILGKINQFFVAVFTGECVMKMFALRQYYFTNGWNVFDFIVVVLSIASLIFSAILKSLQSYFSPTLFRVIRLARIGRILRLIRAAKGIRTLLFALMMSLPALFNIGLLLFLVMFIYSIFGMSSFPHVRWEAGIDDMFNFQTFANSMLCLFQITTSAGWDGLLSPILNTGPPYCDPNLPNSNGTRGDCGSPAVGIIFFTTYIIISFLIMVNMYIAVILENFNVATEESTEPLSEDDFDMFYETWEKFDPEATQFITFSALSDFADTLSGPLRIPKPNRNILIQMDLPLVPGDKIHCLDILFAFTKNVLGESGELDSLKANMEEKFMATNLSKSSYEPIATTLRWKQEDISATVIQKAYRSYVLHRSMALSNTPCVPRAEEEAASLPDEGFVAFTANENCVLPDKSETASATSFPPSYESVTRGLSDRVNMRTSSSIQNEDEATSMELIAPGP

| SMILES | IC50 [1] [µM] | activity at Cav1.3 (hCav1.3) | activity at Cav3.1 (hCav3.1) | IC50 (hNav1.1) [µM] | IC50 (hNav1.2) [µM] | IC50 (hNav1.3) [µM] | IC50 (hNav1.5) [µM] | IC50 (hNav1.6) [µM] | IC50 (hNav1.7 [3]) [µM] | IC50 (hNav1.8) [µM] | ataxia index (number of foot slips/meters travelled) (C57BL/6J mice) | side effects (C57BL/6J mice) | other results |
| --- | --- | --- | --- | --- | --- | --- | --- | --- | --- | --- | --- | --- | --- |
| CC(C)C[C@H](NC(=O)[C@H](CC(=O)O)NC(=O)[C@H](Cc1ccc(O)cc1)NC(=O)[C@H](CCCCN)NC(=O)[C@@H]1CSSC[C@@H]2NC(=O)[C@H](CCCCN)NC(=O)[C@H](CC(=O)O)NC(=O)[C@H](CC(N)=O)NC(=O)[C@H](CCCCN)NC(=O)[C@@H]3CCCN3C(=O)[C@H](CC(=O)O)NC(=O)[C@@H]3CSSC[C@H](NC(=O)[C@H](CO)NC(=O)[C@H](Cc4ccc(O)cc4)NC(=O)[C@H](CC(N)=O)NC(=O)[C@H](CCCCN)NC(=O)[C@H](CSSC[C@H](NC(=O)[C@@H](N)CC(=O)O)C(=O)N[C@@H](CC(C)C)C(=O)NCC(=O)N[C@@H](Cc4c[nH]c5ccccc45)C(=O)N[C@@H](Cc4ccccc4)C(=O)N[C@@H](CCCCN)C(=O)N[C@@H](CO)C(=O)N3)NC2=O)C(=O)N[C@@H](CO)C(=O)N[C@@H](CCCNC(=N)N)C(=O)N[C@@H](CCCNC(=N)N)C(=O)N[C@@H](CC(=O)O)C(=O)N[C@@H](CCCNC(=N)N)C(=O)N[C@@H](Cc2c[nH]c3ccccc23)C(=O)N1)C(N)=O [Cd1a] (H-DCLGWFKSCDPKNDKCCKNYSCSRRDRWCKYDL-NH2; disulfide 2-17, 9-22, 16-29) | 2.6 | inactive | inactive | 2.18 ± 0.69 | 0.13 ± 0.04 | > 30 | > 30 | > 30 | 3.34 ± 1.56 | 6.92 ± 3.44 | no significant effect | did not produce any apparent side effects | IC50 (hCav1.3): > 30 µM; IC50 (hCav3.1): > 30 µM; IC50 [2]: 3 µM; inhibition at 3 µM ([2]; TS/A, 3 μM, n = 9, read-out: inhibition of rCav2.2 currents): ~50%; IC50 (hNav1.4): > 30 µM; IC50 at Nav1.4 (hNav1.4): inactive; IC50 at Nav1.5 (hNav1.5): inactive; IC50 at Nav1.6 (hNav1.6): inactive; enhanced recovery from inhibition by strong positive-depolarising pulse (hNav1.7 [4]): ~ 70%; IC50 (hNav1.7 [4]; n = 10, read-out: IC50 at hNav1.7 (peak current)): 0.016 µM; paralysis or lethality at 24 h [5]: No signs of paralysis or lethality; recovery from paralysis [5]: all flies fully recovered |
| CC(C)C[C@H](NC(=O)[C@H](CC(=O)O)NC(=O)[C@H](Cc1ccc(O)cc1)NC(=O)[C@H](CCCCN)NC(=O)[C@@H]1CSSC[C@@H]2NC(=O)[C@H](CCCCN)NC(=O)[C@H](CC(=O)O)NC(=O)[C@H](CC(N)=O)NC(=O)[C@H](CCCCN)NC(=O)[C@@H]3CCCN3C(=O)[C@H](CC(=O)O)NC(=O)[C@@H]3CSSC[C@H](NC(=O)[C@H]([C@@H](C)O)NC(=O)[C@H](Cc4ccc(O)cc4)NC(=O)[C@H](CC(N)=O)NC(=O)[C@H](CCCCN)NC(=O)[C@H](CSSC[C@H](NC(=O)[C@@H](N)CC(=O)O)C(=O)N[C@@H](CC(C)C)C(=O)NCC(=O)N[C@@H](Cc4c[nH]c5ccccc45)C(=O)N[C@@H](Cc4ccccc4)C(=O)N[C@@H](CCCCN)C(=O)N[C@@H](CO)C(=O)N3)NC2=O)C(=O)N[C@@H](CO)C(=O)N[C@@H](CCCNC(=N)N)C(=O)N[C@@H](CCCNC(=N)N)C(=O)N[C@@H](CC(=O)O)C(=O)N[C@@H](CCCNC(=N)N)C(=O)N[C@@H](Cc2c[nH]c3ccccc23)C(=O)N1)C(N)=O [Cm1a] (H-DCLGWFKSCDPKNDKCCKNYTCSRRDRWCKYDL-NH2; disulfide 2-17, 9-22, 16-29) | 0.4 ± 0.2 | inactive | inactive | 1.06 ± 0.32 |  | > 10 | > 10 | > 10 | 5.12 ± 2.85 | > 10 |  | did not produce any apparent side effects | IC50 (hNav1.2; read-out: IC50 at Nav1.2): 0.07 µM |
| CC(C)C[C@H](NC(=O)[C@H](Cc1ccc(O)cc1)NC(=O)[C@H](Cc1ccc(O)cc1)NC(=O)[C@H](CCCCN)NC(=O)[C@@H]1CSSC[C@@H]2NC(=O)[C@H](CCCCN)NC(=O)[C@H](CC(=O)O)NC(=O)[C@H](CC(N)=O)NC(=O)[C@H](CCCCN)NC(=O)[C@@H]3CCCN3C(=O)[C@H](CC(=O)O)NC(=O)[C@@H]3CSSC[C@H](NC(=O)[C@H]([C@@H](C)O)NC(=O)[C@H](Cc4ccc(O)cc4)NC(=O)[C@H](CC(N)=O)NC(=O)[C@H](CCCCN)NC(=O)[C@H](CSSC[C@H](NC(=O)[C@@H](N)CC(=O)O)C(=O)N[C@@H](CC(C)C)C(=O)NCC(=O)N[C@@H](Cc4c[nH]c5ccccc45)C(=O)N[C@@H](Cc4ccccc4)C(=O)N[C@@H](CCCCN)C(=O)N[C@@H](CO)C(=O)N3)NC2=O)C(=O)N[C@@H](CO)C(=O)N[C@@H](CCCNC(=N)N)C(=O)N[C@@H](CCCNC(=N)N)C(=O)N[C@@H](CC(=O)O)C(=O)N[C@@H](CCCNC(=N)N)C(=O)N[C@@H](Cc2c[nH]c3ccccc23)C(=O)N1)C(N)=O [Cm1b] (H-DCLGWFKSCDPKNDKCCKNYTCSRRDRWCKYYL-NH2; disulfide 2-17, 9-22, 16-29) | 1.1 ± 0.6 | inactive | inactive | 0.17 ± 0.11 | 0.08 ± 0.02 | 5.57 ± 0.04 | > 10 | 3.99 ± 1.6 | 0.23 ± 0.13 | > 10 |  | did not produce any apparent side effects |  |
| NC1=N[C@H](O)[C@H]2[C@H]3O[C@]4(O)O[C@@H]([C@@H](O)[C@@]2(N1)[C@@H]4O)[C@]3(O)CO [TTX, tetrodotoxin] |  |  |  |  |  |  |  |  |  |  | significantly increased the ataxia index (*p < 0.05) |  | reversal of OD1-evoked pain behaviours [6]: fully reversed |
